Patent EP0390515A1, “Novel adenine derivatives and their use as agents for increasing crop yields” (MITSUBISHI GAS CHEMICAL COMPANY, INC., priority 1989, dated 1990)
≈ marks a conversion by molar mass, not a printed value. Where two headings read alike, the source gives them in different places.

What was measured:
[1] = system: Rice seeds (var.: Nankin No. 11) leaf section; experiment: Assay of cytokinin activity by measurement of chlorophyll content (senescence retardation of rice leaf sections); assay type: cell-based, Rice (var.: Nankin No. 11); settings: dark, 30°C, 3 days
Description: Rice seeds (var.: Nankin No. 11) were sown in soil mixed with fertilizer in a seed box and raised for about one month in a greenhouse (25°C in the daytime and 15°C in the night).
A leaf section 1 cm long was cut off from the center of the fourth leaf of the seedlings at the sixth leaf stage. Five leaf sections as one group which had been cut off were floated on the surface of an aqueous solution (2 ml) of the candidate compound or benzyl adenine at a given concentration contained in a glass tubular bottle of 32 mm in inner diameter. This was left to stand in the dark at 30°C for 3 days. The leaf sections were taken out and put in a test tube containing 10 ml of 80% ethanol and the glass tube was immersed in a water bath of 80°C for 20 minutes to extract chlorophyll. After cooling, 80% ethanol was added to make up to 10 ml and absorbance at 665 nm was measured. For the untreated group, water was used in place of the candidate solution in all examples.
Senescence retardation was determined according to the degree of chlorophyll retention, that is, calculated using the following formula (in all examples). [formula] • (A) : Absorbance of treated group after 3 days • (B) : Absorbance of untreated group after 3 days • (C) : Absorbance of leaves before treatment.

[2] = system: glycine (soybean) hypocotyl section; experiment: Assay for cytokinin activity according to glycine (soybean) hypocotyl section growth test (callus weight); assay type: cell-based, Soybean (var.: Enrei); settings: Miller's medium with 2,4-D, dark, 30°C, about one month
Description: Soybean seeds (var.: Enrei) were disinfected with antiformin containing 0.7% effective chlorine for 4 minutes and washed thrice with sterilized water.
Agar (15 ml, 1.6%) was put in a test tube 2.5 cm in diameter. A groove was cut by forceps on the surface of the agar and two soybean seeds treated as above were placed in this groove and kept in the dark at 30°C for 5 days.
In a glass tubular bottle 26 mm in inner diameter was put Miller's medium, to which a given concentration of the candidate compound, benzyladenine or zeatin and […] of 2,4-D were added. The central portion of hypocotyl budding out from the above seeds was cut off to give a section 1 mm thick. Four of the sections as one group were transplanted to the Miller's medium. This was placed in the dark at 30°C for about one month and then the weight of callus formed was measured. For untreated group, the Miller's medium containing 9 mg/l of 2,4-D was used.

[3] = system: leaf section of wheat; experiment: Activity on leaf section of wheat (senescence retardation, chlorophyll retention); assay type: cell-based, wheat [var.: Yukichabo (Triticum astivum)]; settings: wheat leaf sections, 25°C, 4 days, dark
Description: Seeds of wheat [var.: Yukichabo (Triticum astivum)] were sown in vermiculite packed in a seed-bed box and were sprouted by keeping them at 28°C for 2 days in the dark. The seedlings wera grown at 25°C for 5 days under irradiation with light of 1500 Lx. When they grew to a length of 12 - 13 cm, a portion having a length of 1 cm was cut off from the leaf in the region 2 - 5 cm from the tip of the first true leaf. Five of the leaf sections as one group were floated with the upper surface of the leaf being uppermost on the surface of aqueous solution (2 ml) of a given concentration of the candidate compound or benzyladenine contained in a glass tubular bottle 32 mm in inner diameter. These were placed at 25°C for 4 days in the dark and thereafter, these leaf sections were put in a test tube containing 10 ml of 80% ethanol and this test tube was immersed in a water bath at 80°C for 20 minutes to extract chlorophyll. After cooling, 80% ethanol was added to make up to 10 ml and absorbance at 665 nm was measured. Senescence retardation was determined according to the degree of retention of chlorophyll. For the untreated group, water was used in place of the aqueous solution of candidate compound.

[4] = system: leaf of wheat; experiment: Absorption from the surface of the leaf of wheat and translocation (length of green portion); assay type: cell-based, wheat [var.: Yukichabo (Triticum astivum)]; settings: for The length of the green portion (mm) (average in 10 leaves): 10 µl in 0.2% Tween 80 on centre of wheat leaf section, 25°C, 5 days, dark
Description: In the same manner as in the above Example 8 test (1), wheat seedlings were grown to a height of 12 - 13 cm and a portion was cut off from tle region 4 cm from the tip of the first true leaf and this leaf section was used for this test.
The bottom of a Petri dish 9 cm in diameter was covered with a sheet of circular filter paper which was wetted with 2.5 ml of distilled water. A slide glass was put thereon and ten of the leaf sections were arranged on this slide glass with the upper surface of the leaf being uppermost. On the center of the leaf sections was put 10 µl of the solution prepared by dissolving the candidate compound or benzyladenine in a 0.2% aqueous solution of Tween 80 at a given concentration. The Petri dish was covered and left at 25°C for 5 days in the dark. In the part where the candidate solution was absorbed and translocated around the position on which the solution was put, the length of the portion where chlorophyll was retained, namely, the length of the green portion was measured. […]

[5] = system: wheat shoots; experiment: Absorption from the base of wheat shoots and translocation (senescence retardation of leaf sections); assay type: cell-based, wheat [var.: Yukichabo (Triticum astivum)]; settings: for The senescence retardation (%): 10 mg/l taken up from shoot base for 18 hours
Description: Wheat seedlings were grown to a height of 14-15 cm in the same manner as in the above Example 8 test (1) and the shoot was cut off at the base. These sections were used for the test.
A solution (10 ml) containing 10 mg/l of the candidate compound or benzyladenine was poured into a test tube 2.5 cm in diameter and five of the wheat shoots as one group were inserted in one test tube containing the candidate solution and left at 25°C for 18 hours under irradiation with light of 1500 Lx. Thereafter, each of the shoots was cut at 5-6 cm, 8-9 cm and 11-12 cm from the above cut end and five of the respective sections as one group were floated on the surface of distilled water (2 ml) in a glass tubular bottle 32 mm in inner diameter with the upper surface of the leaves being uppermost. These were left at 25°C for 3 days in the dark and thereafter, the leaf sections were put in a test tube containing 10 ml of 80% ethanol. This test tube was immersed in a water bath at 80°C for 20 minutes to extract chlorophyll. After cooling, 80% ethanol was added to make up to 10 ml and absorbance of the solution at 665 nm was measured. In the same manner as in the above Example 8 test (1), senescence retardation was obtained.

[6] = Water solubility; assay type: physicochemical
Description: Water solubility of adenine derivatives of the present invention and representative known cytokinin substances was measured and the results are shown in Table 7. […]

[7] = region of leaf section 5-6 (cm) from cut end
[8] = region of leaf section 8-9 (cm) from cut end
[9] = region of leaf section 11-12 cm from cut end

Compound	The senescence retardation (%) ([1]; 0.001 mg/l)	The senescence retardation (%) ([1]; 0.01 mg/l)	The senescence retardation (%) ([1]; 0.1 mg/l)	The senescence retardation (%) ([1]; 1.0 mg/l)	The weight of soybean callus formed ([2]; 0.001 mg/l) [mg]	The weight of soybean callus formed ([2]; 0.01 mg/l) [mg]	The weight of soybean callus formed ([2]; 0.1 mg/l) [mg]	The senescence retardation (%) ([3]; 0.0001 mg/l)	The senescence retardation (%) ([3]; 0.001 mg/l)	The senescence retardation (%) ([3]; 0.01 mg/l)	The senescence retardation (%) ([3]; 0.1 mg/l)	The senescence retardation (%) ([3]; 1.0 mg/l)	The senescence retardation (%) ([3]; 10 mg/l)	The length of the green portion (mm) (average in 10 leaves) ([4]; 0.1 mg/l)	The length of the green portion (mm) (average in 10 leaves) ([4]; 1.0 mg/l)	The length of the green portion (mm) (average in 10 leaves) ([4]; 10 mg/l)	The senescence retardation (%) [5, 7] [%]	The senescence retardation (%) [5, 8] [%]	The senescence retardation (%) [5, 9] [%]	other results
c1ccc(CNc2ncnc3nc[nH]c23)cc1 [Benzyladenine, 6-benzylaminopurine, reference compound]	17	64	93	93	76	836	674	7	15	50	55	74	75	9.6	14.2	16.9	17	21	14	solubility [6]: 0.03 mg/mL (≈ 0.133 mM)
CON(C)CCNc1ncnc2nc[nH]c12 [MAED, N⁶-[2-(N-methoxy-N-methylamino)ethyl]adenine]	14	60	100	95	97	182	654	4	14	43	56	58	76	9.9	19.8	28.8	37	34	20	The weight of soybean callus formed ([2]; 1.0 mg/l): 823 mg; The weight of soybean callus formed ([2]; 10 mg/l): 705 mg; green portion compared with benzyladenine (absorbability and translocation) ([4]; at the same concentration, result in words): expanded the green portion in more widely than benzyladenine; senescence retardation compared with benzyladenine (absorbability and translocation) ([5]; all regions of the first true leaf of wheat, result in words): more pronounced effect of senescence retardation than benzyladenine in all regions; solubility ([6]; 20°C, read-out: Solubility (g/100 g H₂O) (20°C)): 99 mg/mL (≈ 445 mM)
